Data published in patent US7521478B2, “Total synthesis of myriaporones” (Pharma Mar, S.A.U., priority 2002, dated 2009).

Experiments:
Type in all cases: cell-based
A-549 = experiment: Inhibition of cell growth by colorimetric SRB assay, A-549; details: Homo sapiens, A549, A-549, 48 hours exposure; for CC50: cell killing, read-out: LC50 (the source's name); for IC (total growth inhibition): read-out: TGI
From the text: (§1) The finality of these assays is to interrupt the growth of a “in vitro” tumor cell culture by means a continued exhibition of the cells to the sample to be testing.
(§2) Inhibition of Cell Growth by Colorimetric Assay.
(§3) A colorimetric type of assay, using sulforhodamine B (SRB) reaction has been adapted for a quantitative measurement of cell growth and viability (following the technique described by P. A. Skehan, et al., J. Natl. CancerInst. 1990, 82, 1107-1112).
(§4) This form of assay employs 96 well cell culture microplates of 9 mm diameter (T. Mosmann et al., J. of Immuological Methods 1983, 65, 55-63; G. T. Faircloth et al., J. of Tissue and Culture Methods 1988, 11, 201-205). Most of the cell lines are obtained from American Type Culture Collection (ATCC) derived from different human cancer types.
(§5) Cells are maintained in RPMI 1640 10% FBS, supplemented with 0.1 g/L penicillin and 0.1 g/L streptomycin sulfate and then incubated at 37° C., 5% CO2 and 98% humidity. For the experiments, cells were harvested from subconfluent cultures using trypsin and resuspended in fresh medium before plating.
(§6) Cells are seeded in 96 well microtiter plates, at 5×10^3 cells per well in aliquots of 195 μL medium, and they are allowed to attach to the plate surface by growing in drug free medium for 18 hours. Afterward, samples are added in aliquots of 5 μL in a ranging from 10 to 10^−8 μg/mL, dissolved in DMSO/EtOH/PBS (0.5:0.5:99). After 48 hours exposure, the antitumor effect are measured by the SRB methodology: cells are fixed by adding 50 μL of cold 50% (wt/vol) trichloroacetic acid (TCA) and incubated for 60 minutes at 4° C. Plates are washed with deionizer water and dried. One hundred μl of SRB solution (0.4% wt/vol in 1% acetic acid) is added to each microliter well and incubated for 10 minutes at room temperature. Unbound SRB is removed by washing with 1% acetic acid. Plates are air dried and bound stain is solubilized with Tris buffer. Optical densities are read on a automated spectrophotometric plate reader at a single wavelength of 490 nm.
(§7) The values for mean +/−SD of data from triplicate wells are calculated. Some parameters for cellular responses can be calculated: GI=growth inhibition, TGI=total growth inhibition (cytostatic effect) and LC=cell killing (cytotoxic effect).

LoVo-Dox = experiment: Inhibition of cell growth by colorimetric SRB assay, LOVO-DOX; details: Homo sapiens, LOVO-DOX, 48 hours exposure; for LC50 (concentration for 50% cell killing): read-out: LC50; for IC (total growth inhibition): read-out: TGI
From the text: as §1, §2, §3, §4, §5, §6, §7

SK-BR-3 = experiment: Inhibition of cell growth by colorimetric SRB assay, SK-BR-3; details: SK-BR-3, 48 hours exposure; for GI50 / CC50: Homo sapiens; for CC50: cell killing, read-out: LC50 (the source's name); for TGI: total growth inhibition
From the text: as §1, §2, §3, §4, §5, §6, §7

K-562 = experiment: Inhibition of cell growth by colorimetric SRB assay, K-562; details: Homo sapiens, K562, K-562, 48 hours exposure; for CC50: cell killing, read-out: LC50 (the source's name); for IC (total growth inhibition): read-out: TGI
From the text: as §1, §2, §3, §4, §5, §6, §7

HeLa = experiment: Inhibition of cell growth by colorimetric SRB assay, HELA; details: Homo sapiens, HELA, 48 hours exposure; for CC50: cell killing, read-out: LC50 (the source's name); for IC (total growth inhibition): read-out: TGI
From the text: as §1, §2, §3, §4, §5, §6, §7

SK-MEL-28 = experiment: Inhibition of cell growth by colorimetric SRB assay, MEL-28; details: Homo sapiens, SK-MEL-28, MEL-28, 48 hours exposure; for CC50: cell killing, read-out: LC50 (the source's name); for IC (total growth inhibition): read-out: TGI
From the text: as §1, §2, §3, §4, §5, §6, §7

IGROV-ET = experiment: Inhibition of cell growth by colorimetric SRB assay, IGROV-ET; details: Homo sapiens, IGROV-ET, 48 hours exposure; for CC50: cell killing, read-out: LC50 (the source's name); for IC (total growth inhibition): read-out: TGI
From the text: as §1, §2, §3, §4, §5, §6, §7

HeLa-APL = experiment: Inhibition of cell growth by colorimetric SRB assay, HELA-APL; details: Homo sapiens, HELA-APL, 48 hours exposure; for CC50: cell killing, read-out: LC50 (the source's name); for GI50: read-out: GI50; for IC (total growth inhibition): read-out: TGI
From the text: as §1, §2, §3, §4, §5, §6, §7

HT-29 = experiment: Inhibition of cell growth by colorimetric SRB assay, HT-29; details: Homo sapiens, HT-29, 48 hours exposure; for CC50: cell killing, read-out: LC50 (the source's name); for IC (total growth inhibition): read-out: TGI
From the text: as §1, §2, §3, §4, §5, §6, §7

IGROV = experiment: Inhibition of cell growth by colorimetric SRB assay, IGROV; details: Homo sapiens, 48 hours exposure; for CC50: cell killing, read-out: LC50 (the source's name); for IC (total growth inhibition): read-out: TGI
From the text: as §1, §2, §3, §4, §5, §6, §7

PANC-1 = experiment: Inhibition of cell growth by colorimetric SRB assay, PANC-1; details: Homo sapiens, PANC-1, 48 hours exposure; for CC50: cell killing, read-out: LC50 (the source's name); for IC (total growth inhibition): read-out: TGI
From the text: as §1, §2, §3, §4, §5, §6, §7

LoVo = experiment: Inhibition of cell growth by colorimetric SRB assay, LOVO; details: Homo sapiens, LOVO, 48 hours exposure; for LC50: cell killing, read-out: LC50; for IC (total growth inhibition): read-out: TGI
From the text: as §1, §2, §3, §4, §5, §6, §7

LNCaP = experiment: Inhibition of cell growth by colorimetric SRB assay, LN-caP; details: Homo sapiens, LN-caP, 48 hours exposure; for CC50: cell killing, read-out: LC50 (the source's name); for IC (total growth inhibition): read-out: TGI
From the text: as §1, §2, §3, §4, §5, §6, §7

DU-145 = experiment: Inhibition of cell growth by colorimetric SRB assay, DU-145; details: Homo sapiens, DU-145, 48 hours exposure; for CC50: cell killing, read-out: LC50 (the source's name); for IC (total growth inhibition): read-out: TGI
From the text: as §1, §2, §3, §4, §5, §6, §7

C/C=C\[C@H](C)[C@H]1OC1(C)[C@@H](O)[C@@H](CO)C(=O)[C@H](CO)[C@H](O)CC(=O)CC (stereo partly drawn) [3b + 4b]
GI50 (A-549): 26.8 µM
CC50 (A-549): 26.8 µM
IC (total growth inhibition) (A-549): 26.8 µM
GI50 (LoVo-Dox): 9.34 µM
LC50 (concentration for 50% cell killing) (LoVo-Dox): 26.8 µM
IC (total growth inhibition) (LoVo-Dox): 26.8 µM
GI50 (SK-BR-3): 5.07 µM
CC50 (SK-BR-3): 23.3 µM
TGI (SK-BR-3): 1.09E−05 Molar
GI50 (K-562): 14.2 µM
CC50 (K-562): 23.3 µM
IC (total growth inhibition) (K-562): 18.2 µM
GI50 (HeLa): 8.73 µM
CC50 (HeLa): 26.8 µM
IC (total growth inhibition) (HeLa): 26.8 µM
GI50 (SK-MEL-28): 5.53 µM
CC50 (SK-MEL-28): 26.8 µM
IC (total growth inhibition) (SK-MEL-28): 26.8 µM
GI50 (IGROV-ET): 6.55 µM
CC50 (IGROV-ET): 26.8 µM
IC (total growth inhibition) (IGROV-ET): 26.8 µM
CC50 (HeLa-APL): 26.8 µM
GI50 (HeLa-APL): 5.18 µM
IC (total growth inhibition) (HeLa-APL): 26.8 µM
GI50 (HT-29): 22.1 µM
CC50 (HT-29): 26.8 µM
IC (total growth inhibition) (HT-29): 26.8 µM
GI50 (IGROV): 5.96 µM
CC50 (IGROV): 26.8 µM
IC (total growth inhibition) (IGROV): 26.8 µM
GI50 (PANC-1): 26.8 µM
CC50 (PANC-1): 26.8 µM
IC (total growth inhibition) (PANC-1): 26.8 µM
GI50 (LoVo): 4.81 µM
LC50 (LoVo): 26.8 µM
IC (total growth inhibition) (LoVo): 12.6 µM
GI50 (LNCaP): 9.29 µM
CC50 (LNCaP): 26.8 µM
IC (total growth inhibition) (LNCaP): 26.8 µM
GI50 (DU-145): 6.52 µM
CC50 (DU-145): 26.8 µM
IC (total growth inhibition) (DU-145): 26.8 µM

C/C=C\[C@H](C)[C@H]1O[C@@]1(C)[C@@H](O)[C@@H](CO)C(=O)[C@@H](CO)[C@@H](O)CC(=O)CC [3c + 4c]
GI50 (A-549): 0.913 µM
CC50 (A-549): 26.8 µM
IC (total growth inhibition) (A-549): 13.4 µM
GI50 (LoVo-Dox): 0.846 µM
LC50 (concentration for 50% cell killing) (LoVo-Dox): 26.8 µM
IC (total growth inhibition) (LoVo-Dox): 6.18 µM
GI50 (SK-BR-3): 1.16 µM
CC50 (SK-BR-3): 26.8 µM
TGI (SK-BR-3): 6.07E−06 Molar
GI50 (K-562): 4.59 µM
CC50 (K-562): 26.8 µM
IC (total growth inhibition) (K-562): 11.9 µM
GI50 (HeLa): 0.62 µM
CC50 (HeLa): 26.8 µM
IC (total growth inhibition) (HeLa): 4.78 µM
GI50 (SK-MEL-28): 0.634 µM
CC50 (SK-MEL-28): 26.8 µM
IC (total growth inhibition) (SK-MEL-28): 7.25 µM
GI50 (IGROV-ET): 0.703 µM
CC50 (IGROV-ET): 26.8 µM
IC (total growth inhibition) (IGROV-ET): 6.95 µM
CC50 (HeLa-APL): 26.8 µM
GI50 (HeLa-APL): 0.593 µM
IC (total growth inhibition) (HeLa-APL): 8.67 µM
GI50 (HT-29): 0.564 µM
CC50 (HT-29): 26.8 µM
IC (total growth inhibition) (HT-29): 6.69 µM
GI50 (IGROV): 0.553 µM
CC50 (IGROV): 20.9 µM
IC (total growth inhibition) (IGROV): 3.57 µM
GI50 (PANC-1): 1.03 µM
CC50 (PANC-1): 26.8 µM
IC (total growth inhibition) (PANC-1): 13.3 µM
GI50 (LoVo): 0.714 µM
LC50 (LoVo): 26.8 µM
IC (total growth inhibition) (LoVo): 7.01 µM
GI50 (LNCaP): 0.703 µM
CC50 (LNCaP): 26.8 µM
IC (total growth inhibition) (LNCaP): 4.56 µM
GI50 (DU-145): 0.55 µM
CC50 (DU-145): 26.8 µM
IC (total growth inhibition) (DU-145): 4.16 µM
